EP1276895B1, “METHOD FOR THE IDENTIFICATION OF ACTIVE SITE PROTEASE INACTIVATORS” (THE UNIVERSITY OF GEORGIA RESEARCH FOUNDATION, INC., priority 2000, dated 2001)
Several values for one entry are separate records, joined by “and”; a condition that tells them apart may be missing. Equal values may be shown once. Residues, ends and D or L forms follow the SMILES beside them. *: point of attachment. AFC = O=c1cc(C(F)(F)F)c2ccc(N*)cc2o1; Cbz = O=C(OCc1ccccc1)*; CH2F = FC*

Tests used:
[1] = test system: purified Taenia solium cysteine protease; assay: Competitor assay of low Vmax substrates (vehicles) against high Vmax substrate cocktails (Step III), purified protease; type: biochemical; details: for inhibition in the presence of the 1.4% cocktail: 1.4% cocktail = Z-FR-AFC 1X10^-6M; for inhibition with the final cocktail (7.4%): 7.4% cocktail = Z-FR-AFC + Z-FAR-AFC + Z-AAK-AFC + AP-AFC + Z-VLR-AFC, 1X10^-6 M each, vehicle 8X10^-6 M; for Ki of vehicle: Dixon plot, preliminary, values not reported
Protocol: (We employed "Vmax" here although Kcat could also be used). Due to the lower number of substrates, a percentage was not chosen for the "BOTTOM %" " substrates. Alternately, all substrates which were not cleaved as determined by a value of 10 uM/hr or less, were chosen to be tested in this step for competitive ability. From this point forth, the term "vehicle" will represent low Vmax substrates that were capable of inhibiting cleavage of the percent cocktails. In this instance, we tested for "vehicles" which inhibited cleavage of the TOP 1.4% cocktail (they were delivered into the active site). Based upon our results from Step II, the top 1.4% cocktail was composed of Z-Phe-Arg-AFC, the highest cleaved substrate.
The experiment began with a competitor test between the noncleaved low Vmax substrates and the highest Vmax substrate, Z-Phe-Arg-AFC. Concentrations were varied between the low Vmax substrate and Z-Phe-Arg-AFC, as described above under "refinement of assay" until a relative inhibition profile was obtained.
The mixture was allowed to equilibrate for a period of 30 minutes. Finally, active purified enzyme was added to the tubes at a concentration which was always 50 times less than the concentration of the high and low Vmax substrates, in order to insure saturation conditions. This concentration varied from purification to purification and the amount added depended upon the yield and specific activity of the purified protease.
Positive controls were set up similarly as described for test controls, except that solvent was added in substitution for the low Vmax substrate (in a volume equal to the low Vmax volume addition). All of the substrates could be dissolved in dimethylsulfoxide (DMSO), and therefore, this was the solvent of choice. Negative controls were set up by adding the low Vmax and the high Vmax substrate in a tube without the protease. All potential non-proteolytic induced liberation of AFC was therefore controlled for in this tube (a feature which also insured stability of the AFC substrates, since these substrates will freely liberate AFC when unstable). A tube set will be established for this negative control.
All controls were set up in triplicate, and experiments repeated a minimum of five times. The assays were incubated at 37°C, for 18 hours overnight.
Percent inhibition was calculated as: %Inhibition =; ((AFC positive for"Y"-AFC negative for"Y")-(AFC test-AFC negative for"Y")X100)/(AFC positive for "Y"-AFC negative for "Y") [formula]
A 2.9% cocktail of the high Vmax substrates was made. This was composed of Z-FR-AFC and the second most cleaved substrate, Z-FAR-AFC. The vehicles promoted from the initial screenings above were again tested for competitive inhibition ability with the new cocktails. Their concentrations were set identically to those which were "fixed" in the previous protocols. In other words, 8X10^-6M of the vehicle was added to the culture tube with 1X10^-6 M of Z-FR-AFC and 1X10^-6 M of Z-FAR-AFC. Active protease was added last at a concentration that was 50 times less than the concentration of the high Vmax substrate (to ensure saturating conditions).
In similar experimental fashion, a 4.4%, 5.9%, and 7.4% cocktail were tested with each of the promising vehicles. Each percentage point represented an increase by one substrate. Each of the individual components in the cocktail were added at 1X10^-6 M each, to 8X10^-6 M of the vehicle. The composition of the cocktails was as follows: 4.4% cocktail: Z-FR-AFC, Z-FAR-AFC, and Z-AAK-AFC (third highest cleaved substrate); 5.9% cocktail: Z-FR-AFC, Z-FAR-AFC, Z-AAK-AFC, and AP-AFC (fourth highest cleaved substrate); 7.4% cocktail: […], Z-FAR-AFC, Z-AAK-AFC, AP-AFC, and Z-VLR-AFC. We stopped at this number of substrates in the cocktail, since confidence was obtained that inhibitory potential of vehicles could be "diluted out."
Finally, a manageable set of candidate vehicles was determined. […]

Trypsin (serine) = assay: Differential cleavage (selectivity) test, Trypsin; type: biochemical, human; details: 0.15 M PBS pH 8.0, 100 mM CaCl2, substrate Z-R-AFC
Protocol: In order to perform the assay, the vehicle (for Step VI) or inhibitor (for Step IX) were incubated with the appropriate substrate in the correct assay buffer and allowed to equilibrate. Subsequently, the protease was added, and the assay was allowed to incubate for an appropriate time. The concentrations used in this experiment were as follows: Vehicle was set up at 4 X 10^-5 M in final assay buffer; Inhibitor was set up at 3 X 10^-10 M in the final assay buffer. Accordingly, the dosages employed should be the minimal amount of vehicle or inhibitor necessary to induce inhibition. […] Substrates were set up based upon the preferred substrate for cleavage of the particular enzyme.
Positive controls were set up similarly as described for test controls, except that solvent was added in substitution for the inhibitor or vehicle (in a volume equal to the volume of inhibitor or vehicle addition). All of the inhibitors and vehicles could be dissolved in dimethylsulfoxide (DMSO), and therefore, this was the solvent of choice. Negative controls were set up by adding the inhibitor or vehicle and the preferred substrates in a tube without the protease. All potential non-proteolytic liberation of AFC was therefore controlled for in this tube (a feature which also insured stability of the AFC substrates, since these substrates will freely liberate AFC when unstable).
All controls were set up in triplicate, and experiments were repeated a minimum of five times.
Percent inhibition was calculated as: % Inhibition = ((AFC positive for ʺSIʺ-AFC negative for ʺSIʺ)-(AFC test-AFC negative for ʺSIʺ))/(AFC positive for ʺSIʺ-AFC negative for ʺSIʺ) × 100 [formula] In this preliminary test, we employed the following human-derived enzymes (with indicated mechanistic class): Cathepsin B (cysteine), Cathepsin L (cysteine), Cathepsin H (cysteine), Cathepsin D (aspartic) Trypsin (serine), the purified Taenia solium cysteine protease, and the Taenia solium crude mix. Cathepsin B was prepared in an assay buffer of 10 mM L-cysteine in 0.4 M Citrate buffer, pH 6.1, using Z-ARR-AFC as the cleavage substrate. Cathepsin L was prepared in an assay buffer of 10 mM L-cysteine in 0.4 M Citrate buffer, pH 5.5, using Z-FR-AFC as the cleavage substrate. Cathepsin H was prepared in an assay buffer of 10 mM L-cysteine in 0.15 M PBS buffer, pH 6.8, using L-R-AFC as the cleavage substrate. Cathepsin D was prepared in an assay buffer of 0.15 M PBS, pH 7.1, using Z-RGFFP-AFC as the cleavage substrate. Trypsin was prepared in an assay buffer of 0.15 M PBS, pH 8.0, supplemented with 100 mM CaCl2 and with Z-R-AFC as the cleavage substrate. Enzyme was incubated so that it was at least 50 times less than the concentration of substrate in order to insure saturating conditions.

[2] = vehicle 8X10^-6M, purified protease
[3] = inhibitor 3 X 10^-10 M, 0.0003 µM

| Compound | inhibition in the presence of the 1.4% cocktail [1, 2] | inhibition with the final cocktail (7.4%) ([1]; purified protease) [%] | Ki of vehicle [1] | % Inhibition (Trypsin (serine); vehicle 4 X 10^-5 M, 40 µM) [%] | % Inhibition (Trypsin (serine); [3]) [%] | V Value ([1]; purified protease, V = P * M, P = inhibition with first (1.4%) cocktail, M = inhibition with last (7.4%) cocktail, vehicle 8X10^-6M, each cocktail substrate 1X10^-6 M) |
| --- | --- | --- | --- | --- | --- | --- |
| CC(C)C[C@H](NC(=O)OCc1ccccc1)C(=O)N[C@@H](CC(C)C)C(=O)N[C@@H](Cc1ccc(O)cc1)C(=O)Nc1ccc2c(C(F)(F)F)cc(=O)oc2c1 [Z-LLY-AFC, Z-Leu-Leu-Tyr-AFC] (Cbz-Leu-Leu-Tyr-{AFC}) | greater than 20% | ≥ 50 | lowest Ki values | 0 | – | – |
| CC(C)C[C@H](NC(=O)OCc1ccccc1)C(=O)N[C@@H](CC(C)C)C(=O)N[C@@H](Cc1ccc(O)cc1)C(=O)CF [Z-LLY-FMK, Z-Leu-Leu-Tyr-FMK] (Cbz-Leu-Leu-Tyr-CH2F) | – | – | – | – | 0 | – |
| CC(C)C[C@H](NC(=O)OCc1ccccc1)C(=O)N[C@@H](CC(C)C)C(=O)N[C@@H](CC(C)C)C(=O)Nc1ccc2c(C(F)(F)F)cc(=O)oc2c1 [Z-LLL-AFC, Z-Leu-Leu-Leu-AFC] (Cbz-Leu-Leu-Leu-{AFC}) | greater than 20% | ≥ 50 | lowest Ki values | 0 | – | – |
| Mu-Leu-Tyr-AFC [Mu-LY-AFC] | – | ≥ 50 | lowest Ki values | 0 | – | 0.452 and 0.450 |
| CC(C)C[C@H](NC(=O)[C@H](CC(C)C)NC(=O)[C@H](CC(C)C)NC(=O)OCc1ccccc1)C(=O)CF [Z-LLL-FMK, Z-Leu-Leu-Leu-fluoromethylketone] (Cbz-Leu-Leu-Leu-CH2F) | – | – | – | – | 0 | – |
